The values below are quoted from earlier work in patent publication US20130029862A1, “Clinical application utilizing genetic data for effective medication management” (priority 2011, published 2013).

The conditions of series [1]: carriers of C allele compared to T/T homozygotes, ApoE rs7412.
For series [2] the following is noted: Met/Met (A/A) compared to Val/Val (G/G), COMT rs4680.

On to `Cc1cc2c(s1)Nc1ccccc1N=C2N1CCN(C)CC1` [olanzapine], for which the weight gain result in series [1] is recorded as “likely to gain weight on olanzapine”.
Take `Fc1ccc([C@@H]2CCNC[C@H]2COc2ccc3c(c2)OCO3)cc1` [paroxetine]: in series [2], the response with antidepressant entry was “Better response with antidepressant”.
